Columns and labels:
Canis familiaris [1] = assay: Saluretic property in average of two anesthetized dogs after 5 mg/kg intravenous administration; format: functional, Canis lupus familiaris
Canis familiaris [2] = assay: Saluretic property in average of three anesthetized dogs after 5 mg/kg intravenous administration; format: functional, Canis lupus familiaris
Rattus norvegicus [3] = assay: Saluretic property after 50 mg/kg oral administration in rats; format: functional
Canis familiaris [4] = assay: Saluretic property in average of single anesthetized dogs after 5 mg/kg intravenous administration; format: functional, Canis lupus familiaris
Canis familiaris [5] = assay: Saluretic property in average of two conscious dogs after 5 mg/kg intravenous administration; format: functional, Canis lupus familiaris
Canis familiaris [6] = assay: Saluretic property in average of two anesthetized dogs after 5 mg/kg iv administration; format: functional, Canis lupus familiaris
Rattus norvegicus [7] = assay: Saluretic property after 80 mg/kg oral administration in rats; format: functional
Canis familiaris [8] = assay: Saluretic property in average of one used conscious dog after 5 mg/kg intravenous administration; format: functional, Canis lupus familiaris
Canis familiaris [9] = assay: Saluretic property in average of two anesthetized dogs after 1 mg/kg intravenous administration; format: functional, Canis lupus familiaris

| SMILES | Score (Canis familiaris [1]) | Score (Rattus norvegicus [3]) | other results |
| --- | --- | --- | --- |
| Cl.NC1CCc2c(Cl)ccc(O)c21 (centres undefined) | 1 |  |  |
| NS(=O)(=O)c1cc2c(cc1Cl)NCNS2(=O)=O [HYDROCHLOROTHIAZIDE] |  | 2 | Score (Canis familiaris [2]): 1 |
| Cl.NCc1cc(Cl)c2ccccc2c1O | 6 | 2 |  |
| Cl.NCc1c(O)ccc2ccccc12 | 1 |  |  |
| Cl.Cl.NCc1ccc2cnccc2c1O |  | 0 | Score (Canis familiaris [4]): 1 |
| Cc1c(O)c(CN)c(C)c2c1CCCC2.Cl |  | 5 | Score (Canis familiaris [5]): 4 |
| Cc1cc(=O)oc2ccc(O)c(CN)c12.Cl |  | 0 | Score (Canis familiaris [6]): 0 |
| Cl.NCc1c(O)ccc2nccnc12 |  | 0 | Score (Canis familiaris [2]): 1 |
| CC1Nc2ccc(O)c(CN)c2S1.Cl.Cl (centres undefined) | 0 | 0 |  |
| Cl.Cl.NCc1c(O)ccc2cccnc12 | 0 |  | Score (Rattus norvegicus [7]): 0 |
| NCc1ccccc1O [2-(AMINOMETHYL)PHENOL] |  | 0 | Score (Canis familiaris [6]): 0 |
| Cc1cc(C)c2c(c1O)C(N)CC2.Cl (centres undefined) | 0 | 0 |  |
| Cl.Cl.Cl.NCc1cc(Cl)c2cccnc2c1O |  |  | Score (Canis familiaris [5]): 1 |
| CCC1Cc2c(Cl)c(Cl)c(O)c(CN)c2C1.Cl (centres undefined) | 0 | 0 |  |
| Cl.Cl.NCc1c(O)ccc2ncccc12 |  | 0 | Score (Canis familiaris [8]): 1 |
| NS(=O)(=O)c1cc(C(=O)O)c(NCc2ccco2)cc1Cl [FUROSEMIDE] |  | 3 | Score (Canis familiaris [9]): 6 |

— ChEMBL document CHEMBL1122215, “2-(Aminomethyl)phenols, a new class of saluretic agents. 5. Fused-ring analogues” (1983)
